pIC50: −log10 of the molar value.
Target: T1, recombinant human SIRT1 (Homo sapiens, UniProt Q96EB6)
T1 construct: purchased R&D Systems, Biotechne
T1 sequence (Q96EB6 1-747): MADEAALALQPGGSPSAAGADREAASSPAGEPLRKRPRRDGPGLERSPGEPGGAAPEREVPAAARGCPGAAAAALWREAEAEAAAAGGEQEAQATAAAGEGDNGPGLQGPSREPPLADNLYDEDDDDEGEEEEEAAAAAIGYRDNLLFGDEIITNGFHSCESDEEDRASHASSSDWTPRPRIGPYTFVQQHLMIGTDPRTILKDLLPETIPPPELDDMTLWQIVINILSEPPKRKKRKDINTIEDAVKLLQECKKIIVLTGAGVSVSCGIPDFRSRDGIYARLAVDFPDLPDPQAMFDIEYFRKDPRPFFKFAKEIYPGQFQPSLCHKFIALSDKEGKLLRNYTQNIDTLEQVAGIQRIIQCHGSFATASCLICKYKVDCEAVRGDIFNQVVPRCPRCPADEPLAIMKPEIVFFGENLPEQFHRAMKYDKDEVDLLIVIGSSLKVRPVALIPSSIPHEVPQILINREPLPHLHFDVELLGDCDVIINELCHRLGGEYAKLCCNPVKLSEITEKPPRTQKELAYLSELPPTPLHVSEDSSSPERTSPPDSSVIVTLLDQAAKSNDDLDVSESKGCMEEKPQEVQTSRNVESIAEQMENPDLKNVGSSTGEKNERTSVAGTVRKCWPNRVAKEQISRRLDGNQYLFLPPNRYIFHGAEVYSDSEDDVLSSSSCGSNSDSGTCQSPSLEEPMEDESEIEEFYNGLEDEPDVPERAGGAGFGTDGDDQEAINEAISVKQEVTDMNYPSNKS
Experiment: NAD+-dependent deacetylation bioluminescence assay (SIRT-Glo)
Type: biochemical
Conditions: Sirt-Glo luminescence assay, three independent experiments; read-out: IC50, inhibition of deacetylase activity
Method: Though SA treatment should prevent IsoK adduct formation on many different protein targets, and many of these proteins could have some impact on lifespan and healthspan, the present inventors determined that there would be specific proteins of particular importance in mediating SA's beneficial effects. Specifically, the present inventors recognized that SIR-2.1 would be one of these “high value targets” for several reasons. […] Recombinant human SIRT1 was incubated with increasing concentrations of synthetically pure IsoK, and enzymatic deacetylase activity was assessed using the luminescence based Sirt-Glo assay (Promega).
Relative activity of the NAD+-dependent histone deacetylase (HDAC) class III enzymes (sirtuins) was measured using the SIRT-Glo™ Assay and Screening System (Promega Corporation, Madison, Wis.) according to the manufacturer's instructions with minor modifications. […] Deacetylation of the peptide substrate is measured using a coupled enzymatic system with a protease in the reagent provided and then cleaves the luminogenic peptide to liberate aminoluciferin. Free aminoluciferin can be quantified using the Ultra-Glo™ firefly luciferase reaction to produce a stable, persistent emission of light. […] 15-E2-IsoK was synthesized by the method of Armanath et al. Luminescence was detected by a microplate reader (FLUOstar Optima microplate reader, BMG Labtechnologies).

pIC50: 4.01
Substance: 15-E2-IsoK

Source: patent US11633370B2, “Use of scavengers of reactive gamma-ketoaldehydes to extend cell lifespan and healthspan” (Vanderbilt University, priority 2016, dated 2023)
